The target of the test is T1, LXRβ receptor (Gal-hLXRβ-DEF in HG5LN HeLa cells) (Homo sapiens, UniProt P55055).
T1 construct: stably transported with the Gal-hLXRβ-DEF plasmid; expressed in transfected cells; host or cells: HG5LN cells (HeLa stably transfected with the (17mer)5-bGlob-Luc reporter)
T1 sequence (P55055 222-460 limits assumed): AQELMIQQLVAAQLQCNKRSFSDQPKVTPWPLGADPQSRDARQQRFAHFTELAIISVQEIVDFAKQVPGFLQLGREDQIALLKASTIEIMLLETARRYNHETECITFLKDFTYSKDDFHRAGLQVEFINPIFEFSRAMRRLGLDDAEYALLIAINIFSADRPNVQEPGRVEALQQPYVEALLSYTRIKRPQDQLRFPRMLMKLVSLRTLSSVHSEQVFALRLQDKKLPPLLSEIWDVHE
The test is described as follows: LXRβ transactivation test (luciferase reporter), determination of Kd apparent by crossover curves against a reference agonist. The conditions noted are these: for KdR/KdA: ratio of KdR to KdA. Format: cell-based. On the procedure: This activity on the LXRβ receptors is measured in the transactivation test and quantified by means of the dissociation constant Kdapp (apparent), as described in Example 3.
The activity of the LXRβ receptors is measured in a transactivation test. Activation of the receptors with an agonist (activator) in HeLa cells leads to the expression of a reporter gene, luciferase, which, in the presence of a substrate, generates light. The activation of the receptors may thus be measured by quantifying the luminescence produced after incubating the cells in the presence of a reference agonist. The antagonist products displace the agonist from its site, thus preventing activation of the receptor: there will thus be a reduction in the light produced, which may be quantified. The agonist products are tested alone and their effect is measured by measuring the activation of luminescence after incubation.
Determination of the Kdapp:
In this study, a constant that is the affinity of the molecule for the receptor is determined. Since this value can fluctuate depending on the basal activity and the expression of the receptor, it is known as the Kd apparent (KdApp).
To determine this constant, “crossover curves” of the test product against a reference agonist are produced in a 96-well plate: […] of the test product plus a concentration 0 (in the rows) and 7 concentrations of the agonist plus a 0 concentration (in the columns). This is 88 measurement points for one product and one receptor. The remaining 8 wells are used for the 100% control (total agonist) and 0% control (DMSO).
These crossover curves make it possible to determine the AC50 values (concentration at which 50% activation is observed) of the reference ligand at various concentrations of the test product. These AC50 values are used to calculate the Schild regression by plotting a straight line corresponding to the Schild equation (“quantitation in receptor pharmacology,” Terry P. Kenakin, Receptors and Channels, 2001, 7, 371-385).
In the case of an antagonist, an IC50 value (concentration inhibiting 50% of the activity) is calculated by plotting the curve of the product at the concentration of the reference ligand giving 80% activation.
The cell lines used are HG5LN cells, HeLa cells stably transfected with the (17mer)5-bGlob-Luc reporter and also stably […] with the Gal-hLXRβ-DEF plasmid. These cells are inoculated into 96-well plates at a rate of 10 000 cells per well in 100 μl of DMEM medium free of phenol red and supplemented with 10% defatted calf serum. The plates are then incubated at 37° C. and 7% CO2 for 4 hours.
The various dilutions of the test products, of the reference ligand and of the 100% control (N-(2,2,2-trifluoroethyl)-N-[4-(trifluorohydroxy-trifluoromethylethyl)phenyl]benzenesulfonamide) and of the 0% control (0.2% dimethyl sulfoxide) are added at a rate of 5 μl per well. The plates are then incubated for 18 hours at 37° C. and 7% CO2.
The culture medium is removed by turning over and 100 μl of a 1:1 PBS/luciferine mixture are added to each well. After 5 minutes, the plates are read using a luminescence detector.

Where [1] appears, read: KdA, Affinity for the LXRβ receptor, HG5LN HeLa cells, Gal-hLXRβ-DEF, luciferase.
Where [2] appears, read: KdApp, apparent dissociation constant, Schild regression, LXRβ receptor.
Where [3] appears, read: KdR, Affinity for the LXRβ receptor, HG5LN HeLa cells, Gal-hLXRβ-DEF, luciferase.

Molecules are shown by their SMILES. pKd: −log10 of the molar value.

What is called pKd is the negative decadic logarithm of the Kd, by convention in mol/L. Take `CC(=O)C1(c2ccccc2)CCN(C(=O)CNC(=O)c2ccc(C3CCCCC3)cc2)CC1` [Compound 18, N-[2-(4-acetyl-4-phenylpiperidin-1-yl)-2-oxoethyl]-4-cyclohexylbenzamide]: the KdR/KdA worked out at 4. Besides, the pKd under setting [1] is 6.30. Besides, under setting [2], the negative-log Kd (pKd) is 5.70. Moreover, under setting [3], the pKd is 5.70.
On to `CCCC(=O)C1(c2ccccc2)CCN(C(=O)C(C)(C)Oc2ccccc2Cl)CC1` [Compound 47, 1-{1-[2-(2-chlorophenoxy)-2-methylpropionyl]4-phenylpiperidin-4-yl}butan-1-one], for which the KdR/KdA amounted to 0.1. In addition, the negative-log Kd (pKd) under setting [1] was 4.70. In addition, the pKd under setting [2] is 5.70. Moreover, the pKd under setting [3] is 5.70.
For `CCCC(=O)C1(c2ccccc2)CCN(C(=O)CNC(=O)c2ccc(C3CCCCC3)cc2)CC1` [Compound 54, N-[2-(4-butyryl-4-phenylpiperidin-1-yl)-2-oxoethyl]-4-cyclohexylbenzamide], the KdR/KdA is given as 4. Further, under setting [1], the pKd is 6.30. In addition, the pKd under setting [2] was 5.70. Further, under setting [3], the pKd was 5.70.

The values are drawn from patent US20060058351A1, “Novel ligands that modulate LXR-type receptors and cosmetic/pharmaceutical applications thereof” (GALDERMA RESEARCH & DEVELOPMENT, S.N.C., priority 2003, published 2006).
